Measured values: patent US10987377B2, “Use of inhaled gaseous nitric oxide as a mucolytic agent or expectorant” (Advanced Inhalation Therapies (AIT), Ltd., priority 2004, dated 2021)
“And” between values parts separate entries of the source, which are not always exact repeats. Identical values can stand only once.

What was measured:
[1] = system: Thoroughbred racehorses with excessive mucus production; experiment: Example 1: inhaled gaseous NO in Thoroughbred racehorses with excessive mucus, endoscopic mucus scoring; assay type: in vivo, equine; set-up: key to Mucus status: NG = No change in status; settings: for Side effects: equine study, inhaled administration
Excerpt: Six (6) Thoroughbred racehorses at a major racing jurisdiction were quarantined for two weeks, and each horse had evidence of excessive mucus production as surveyed by clinical presentation and by endoscopic exam. The horses were isolated from each other and were being medicated daily in series with several broad-spectrum antimicrobials routinely employed for respiratory infections in Equids. The results before the administration with gaseous NO had been unremarkable. […] All six horses were included in the study using gaseous NO.
The horses were brought individually to the veterinary hospital barn for further evaluation over the course of five days. An fiberoptic endoscope was passed to the level of the bifurcation of the trachea (carina-airway) with images recorded on videotape. A scoring system was used to indicate the presence or absence of mucus, as well as its severity, if present. This scoring system has been described by Dixon et. al., “Equine Pulmonary Disease: Ancillary Diagnostic Findings,” Equine Vet. Journal 27, 428-435, 1995, herein incorporated by reference in its entirety. A score of zero indicates the absence of mucus, while a score of 1 to 5 indicates increasing amounts of mucus observed endoscopically in the trachea. The attending Veterinarian conducting the examination did the scoring. All of the six horses scored 4 or higher before the initiation of the treatments.
Treatment intervention of inhaled gaseous Nitric Oxide was administered to all six horses during a five-day period. Five of the horses (#2-#6) received 100 breaths of 10,000 ppm resulting in, based on pulmonary mechanics, a lung concentration of approximately 160 ppm. Horse #1 received 100 breaths of 5000 ppm resulting in 80 ppm on Day #1 and a second administration of 100 breaths of 10,000 ppm on Day #5. Horse #5 received 100 breaths of 10,000 ppm on Day #3 and a second administration of 100 breaths of 10,000 ppm on Day #4.
An outline of the treatment results is provided below in Table No. 1 (with scores when available). […] On a day where a measurement and a treatment occur, such as Day #4 for Horse #5, the measurement was taken before the administration of the second dosage.

[2] = system: Standardbred horses with excessive mucus accumulation; experiment: Example 2: inhalant Nitric Oxide gas in Standardbred horses with excessive mucus accumulation, post race endoscopic mucus score; assay type: in vivo, equine; set-up: key to Decrease in Mucus Score: Dixon score: 0 = no mucus, 1-5 = increasing mucus; pre minus post
Excerpt: Twenty-seven Standardbred horses were referred to this study with a history of poor performance and with evidence of excessive mucus accumulation as surveyed by endoscopic exam. This was a single site population study and the subjects served as their own control.
Horses were examined pretreatment by videoendocscopy on a minimum of two consecutive occasions post race, one week or longer between scopings, to document the degree and persistence of mucus residence. The endoscope was passed to the level of the bifurcation of the trachea (carina) with images logged on a video recorder. The Dixon et al. scoring system was used to indicate the presence or absence of mucus, as well as its severity, if present. Zero indicates absence of mucus, and 1 to 5 indicating increasing amounts of mucus observed endoscopically in the trachea. Scoring was done by the veterinarian conducting the examination, then later by another “blinded” individual using the recorded examination.
Treatment via a metered delivery device was provided that included a source of nitric oxide from a pressurized gas cylinder and a delivery interface with the subject's nare. The Nitric Oxide delivery device is enabled by a microprocessor-based computer (Pulmonox Medical Inc, Tofield, Alberta, Canada) wherein a proportionate flow rate of Nitric Oxide gas is delivered based on the horse's tidal volume/minute ventilation with a resulting airway/pulmonary concentration of 160-200 ppm.
Upon enrollment in the study a candidate for the treatment intervention was administered 100 breathes of NO gas as previously described for a minimum of three days. A follow up endoscopic exam on the next available immediate post race was performed and a mucus score assigned. Post race endoscopic exams were continued for several events as a measurable outcome. Depending on the results (i.e. no change or a graded increase in mucus scores) multiple treatment cycles were continued and the results recorded via post race endoscopic exam over the next of several weeks.

bovine = experiment: Preliminary experiments with bovine, mucus hydrolyzed and excreted from the nares; assay type: in vivo
Excerpt: Thus, the Applicants believe that inhaled gaseous NO as an effective treatment to excess mucus accumulation in the airways of mammals.

healthy bovine = experiment: Preliminary experiments with healthy bovine, prevention of mucus accumulation; assay type: in vivo; settings: inhaled
Excerpt: Additionally, inhaled nitric oxide containing gas may act as a preventative measure in the accumulation of mucus in the airways. […] Such a risk may be associated with recent infection and/or contact with other infected mammals. […] The delivery of inhaled nitric oxide containing gas may be administered to these risk mammals in order to prevent mucus accumulation in the airway. Effective therapeutic amounts may also refer to an amount sufficient to break down the viscoelastic mucus and increase mucociliary transport in the mammal's airway and to increase MMC in the mammal. Therefore, treating mucus accumulation in the airways of a mammal comprises reducing mucus accumulation, preventing mucus accumulation, reducing mucociliary dyskinesia, and/or preventing mucociliary dyskinesia.

Compound: [N]=O [gNO, Nitric Oxide]
- Mucus score (endoscopic, 0-5) ([1]; Horse #1, Day #2, Tx 100 breaths at 5000 ppm on Day #1): Clear (0)
- Return of the previous amount of mucus (amount before administration of gNO), not scored ([1]; Horse #1, Day #3, Tx 100 breaths at 5000 ppm on Day #1): 25% rtn.
- Mucus status ([1]; Horse #1, Day #4, Tx 100 breaths at 5000 ppm on Day #1): NG
- Mucus status ([1]; Horse #1, Day #5, before second Tx (10,000 ppm), Tx 5000 ppm on Day #1): NG, Tx 10k
- Mucus score (endoscopic, 0-5) ([1]; Horse #1, Day #6, Tx 5000 ppm Day #1 and Tx 100 breaths at 10,000 ppm Day #5): Trace (1)
- Mucus score (endoscopic, 0-5) ([1]; Horse #2, Day #2, Tx 100 breaths at 10,000 ppm on Day #1): Clear (0)
- Return of the previous amount of mucus (amount before administration of gNO), not scored ([1]; Horse #2, Day #3, Tx 100 breaths at 10,000 ppm on Day #1): 25% rtn.
- Mucus status ([1]; Horse #2, Day #4, Tx 100 breaths at 10,000 ppm on Day #1): NG
- Mucus status ([1]; Horse #2, Day #5, Tx 100 breaths at 10,000 ppm on Day #1): NG
- Mucus score (endoscopic, 0-5) ([1]; Horse #3, Day #3, Tx 100 breaths at 10,000 ppm on Day #2): Clear (0)
- Mucus status ([1]; Horse #3, Day #4, Tx 100 breaths at 10,000 ppm on Day #2): NG
- Mucus score (endoscopic, 0-5) ([1]; Horse #3, Day #5, Tx 100 breaths at 10,000 ppm on Day #2): Trace (2)
- Mucus score (endoscopic, 0-5) ([1]; Horse #4, Day #4, Tx 100 breaths at 10,000 ppm on Day #3): Clear (0)
- Return of the previous amount of mucus (amount before administration of gNO), not scored ([1]; Horse #4, Day #5, Tx 100 breaths at 10,000 ppm on Day #3): 25% rtn.
- Mucus score (endoscopic, 0-5) ([1]; Horse #5, Day #4, before second dosage, Tx 100 breaths at 10,000 ppm on Day #3): Clear (0),
- Mucus score (endoscopic, 0-5) ([1]; Horse #5, Day #5, Tx 100 breaths at 10,000 ppm on Day #3 and Day #4): Trace (2)
- Mucus score (endoscopic, 0-5) ([1]; Horse #5, Day #6, Tx 100 breaths at 10,000 ppm on Day #3 and Day #4): Trace (1)
- Mucus score (endoscopic, 0-5) ([1]; Horse #6, Day #6, Tx 100 breaths at 10,000 ppm on Day #5): Trace (2)
- Reduction in mucus from Day #1 ([1]; Horses #2 and #4 (25% of the mucus returned, not scored)): 75%
- Side effects [1]: did not result in any irritation, inflammation or abnormal side effects
- Side effects ([1]; listed as inhaled NO): no untoward side effects were observed
- Observation immediately following administration ([1]; horses, inhaled): non-viscous liquids started to flow out of the nares of the horses
- Time until non-viscous liquids start to flow out of the nares ([1]; six equine with excessive mucus accumulation, after inhalation): 10 to 30 min
- Reduction of mucus ([1]; six equine, all subjects): reductions of mucus to trace levels in all subjects
- Response to additional treatment cycles ([2]; horses with recurrence to scores of 2 or more in the weeks following the first treatment): repeatable marked reduction in mucus scores following treatment
- Post-Mucus Score (after administering gNO) ([2]; individual horses 1-27, 100 breaths for a minimum of three days, airway concentration 160-200 ppm, post race endoscopy, Dixon scale 0-5): 2 (6×) and 0 (7×) and 3 (2×) and 4 (2×) and 1 (4×) and 1.5 (2×) and 2.5 (4×)
- Decrease in Mucus Score ([2]; individual horses 1-27, pre-score minus post-score, 100 breaths for a minimum of three days, 160-200 ppm): .5 (7×) and 1 (5×) and 2.5 (2×) and 3 (3×) and 3.5 (2×) and 2 (5×) and 1.5 and 0
- Number of horses with decrease in score by at least 0.5 ([2]; of twenty-seven, Dixon et al. scale): Twenty five
- Number of horses with score reduction of at least 1 ([2]; of twenty-seven, after a single treatment cycle): Eighteen
- Number of subjects with decrease in mucus score from 2 to 3.5 ([2]; of twenty-seven, single or multiple treatments, transient reduction): Twelve
- Improvement in mucus scores post treatment ([2]; twenty-seven horses enrolled): all but two showed significant improvement in their mucus scores
- Time until mucus is hydrolyzed and excreted from the nares (bovine): 10 to 30 min
- Prevention of mucus accumulation (healthy bovine): results in the prevention of mucus accumulation
